Legend:
Assay in all cases: relative viability (nuclei count vs DMSO), 5 days (fraction); higher = more cells survive
201T = system: 201T
Procedure, shortened: (§1)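 A single step with final 0.05% Triton X-100, 1% formaldehyde and 1 ug/ml Hoechst fixed the cells and stained nuclei 5 days after treatment. Lung cancer cell lines in 1536-well plates had been treated by pin tool the day after seeding with one drug alone or a fixed anchor-drug dose plus five library-drug doses (not always all listed) in √10 steps, and nuclei were counted on 4× images. Relative viability is the ratio of nuclei in treated wells to nuclei in vehicle wells, taken as the median of duplicate plates.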

ABC-1 = system: ABC-1
Procedure, shortened: as §1

CAL-12T = system: CAL-12T
Procedure, shortened: as §1

EMC-BAC-2 = system: EMC-BAC-2
Procedure, shortened: as §1

H3255 = system: H3255
Procedure, shortened: as §1

HOP-62 = system: HOP-62
Procedure, shortened: as §1

LXF-289 = system: LXF-289
Procedure, shortened: as §1

NCI-H1563 = system: NCI-H1563
Procedure, shortened: as §1

NCI-H1651 = system: NCI-H1651
Procedure, shortened: as §1

NCI-H1734 = system: NCI-H1734
Procedure, shortened: as §1

NCI-H1755 = system: NCI-H1755
Procedure, shortened: as §1

NCI-H2009 = system: NCI-H2009
Procedure, shortened: as §1

NCI-H2087 = system: NCI-H2087
Procedure, shortened: as §1

NCI-H2126 = system: NCI-H2126
Procedure, shortened: as §1

NCI-H322M = system: NCI-H322M
Procedure, shortened: as §1

NCI-H441 = system: NCI-H441
Procedure, shortened: as §1

NCI-H596 = system: NCI-H596
Procedure, shortened: as §1

NCI-H647 = system: NCI-H647
Procedure, shortened: as §1

For `COCC1(CO)C(=O)C2CCN1CC2` (stereo not drawn) [PRIMA-1MET] + CC(C)C[C@H](NC(=O)[C@H](Cc1ccccc1)NC(=O)c1cnccn1)B(O)O [Bortezomib] (partner 0.002 µM), the relative viability (201T; first compound 0.2 µM) was 1.18, the relative viability (201T; first compound 0.6325 µM) was 1.07 and the relative viability (201T; first compound 2 µM) was 1.07. The relative viability (201T; first compound 6.325 µM) was 1.15, the relative viability (201T; first compound 20 µM) was 1.08 and the relative viability (ABC-1; first compound 0.2 µM) was 0.297. For the same compound, the relative viability (ABC-1; first compound 0.6325 µM) was 0.278, the relative viability (ABC-1; first compound 2 µM) was 0.256 and the relative viability (ABC-1; first compound 6.325 µM) was 0.287. It also gave a relative viability (ABC-1; first compound 20 µM) of 0.276, a relative viability (CAL-12T; first compound 0.2 µM) of 0.862 and a relative viability (CAL-12T; first compound 0.6325 µM) of 0.947. It also gave a relative viability (CAL-12T; first compound 2 µM) of 1.15, a relative viability (CAL-12T; first compound 6.325 µM) of 0.946 and a relative viability (CAL-12T; first compound 20 µM) of 0.245. It also gave a relative viability (EMC-BAC-2; first compound 0.2 µM) of 1.15, a relative viability (EMC-BAC-2; first compound 0.6325 µM) of 1.02 and a relative viability (EMC-BAC-2; first compound 2 µM) of 0.952. It also gave a relative viability (EMC-BAC-2; first compound 6.325 µM) of 1.03, a relative viability (EMC-BAC-2; first compound 20 µM) of 1.08 and a relative viability (H3255; first compound 0.2 µM) of 0.814. For the same compound, the relative viability (H3255; first compound 0.6325 µM) was 0.461, the relative viability (H3255; first compound 2 µM) was 0.771 and the relative viability (H3255; first compound 6.325 µM) was 0.815. The relative viability (H3255; first compound 20 µM) was 0.69, the relative viability (HOP-62; first compound 0.2 µM) was 1.02 and the relative viability (HOP-62; first compound 0.6325 µM) was 0.648. The relative viability (HOP-62; first compound 2 µM) was 0.965, the relative viability (HOP-62; first compound 6.325 µM) was 0.736 and the relative viability (HOP-62; first compound 20 µM) was 0.443. It also gave a relative viability (LXF-289; first compound 0.2 µM) of 0.999, a relative viability (LXF-289; first compound 0.6325 µM) of 0.976 and a relative viability (LXF-289; first compound 2 µM) of 1.12. It also gave a relative viability (LXF-289; first compound 6.325 µM) of 1, a relative viability (LXF-289; first compound 20 µM) of 0.872 and a relative viability (NCI-H1563; first compound 0.2 µM) of 0.945. For the same compound, the relative viability (NCI-H1563; first compound 0.6325 µM) was 0.822, the relative viability (NCI-H1563; first compound 2 µM) was 0.635 and the relative viability (NCI-H1563; first compound 6.325 µM) was 1.15. The relative viability (NCI-H1563; first compound 20 µM) was 0.386, the relative viability (NCI-H1651; first compound 0.2 µM) was 0.929 and the relative viability (NCI-H1651; first compound 0.6325 µM) was 0.847. For the same compound, the relative viability (NCI-H1651; first compound 2 µM) was 0.874, the relative viability (NCI-H1651; first compound 6.325 µM) was 0.975 and the relative viability (NCI-H1651; first compound 20 µM) was 0.844. The relative viability (NCI-H1734; first compound 0.2 µM) was 1.16, the relative viability (NCI-H1734; first compound 0.6325 µM) was 0.75 and the relative viability (NCI-H1734; first compound 2 µM) was 0.812. For the same compound, the relative viability (NCI-H1734; first compound 6.325 µM) was 0.967, the relative viability (NCI-H1734; first compound 20 µM) was 0.224 and the relative viability (NCI-H1755; first compound 0.2 µM) was 1.11. The relative viability (NCI-H1755; first compound 0.6325 µM) was 0.892, the relative viability (NCI-H1755; first compound 2 µM) was 0.877 and the relative viability (NCI-H1755; first compound 6.325 µM) was 0.974. The relative viability (NCI-H1755; first compound 20 µM) was 0.975, the relative viability (NCI-H2009; first compound 0.2 µM) was 0.714 and the relative viability (NCI-H2009; first compound 0.6325 µM) was 0.885. It also gave a relative viability (NCI-H2009; first compound 2 µM) of 0.779, a relative viability (NCI-H2009; first compound 6.325 µM) of 0.975 and a relative viability (NCI-H2009; first compound 20 µM) of 0.0124. The relative viability (NCI-H2087; first compound 0.2 µM) was 1, the relative viability (NCI-H2087; first compound 0.6325 µM) was 0.673 and the relative viability (NCI-H2087; first compound 2 µM) was 0.795. It also gave a relative viability (NCI-H2087; first compound 6.325 µM) of 0.888, a relative viability (NCI-H2087; first compound 20 µM) of 0.647 and a relative viability (NCI-H2126; first compound 0.2 µM) of 1.21. It also gave a relative viability (NCI-H2126; first compound 0.6325 µM) of 1.13, a relative viability (NCI-H2126; first compound 2 µM) of 1.06 and a relative viability (NCI-H2126; first compound 6.325 µM) of 1.16. For the same compound, the relative viability (NCI-H2126; first compound 20 µM) was 1.1, the relative viability (NCI-H322M; first compound 0.2 µM) was 1.3 and the relative viability (NCI-H322M; first compound 6.325 µM) was 1.29. It also gave a relative viability (NCI-H322M; first compound 20 µM) of 1.06, a relative viability (NCI-H441; first compound 0.2 µM) of 0.387 and a relative viability (NCI-H441; first compound 0.6325 µM) of 0.407. The relative viability (NCI-H441; first compound 2 µM) was 0.347, the relative viability (NCI-H441; first compound 6.325 µM) was 0.404 and the relative viability (NCI-H441; first compound 20 µM) was 0.107. It also gave a relative viability (NCI-H596; first compound 0.2 µM) of 1.11, a relative viability (NCI-H596; first compound 0.6325 µM) of 0.93 and a relative viability (NCI-H596; first compound 2 µM) of 0.803. It also gave a relative viability (NCI-H596; first compound 6.325 µM) of 1.25, a relative viability (NCI-H596; first compound 20 µM) of 0.195 and a relative viability (NCI-H647; first compound 0.2 µM) of 1.19. It also gave a relative viability (NCI-H647; first compound 0.6325 µM) of 1.06, a relative viability (NCI-H647; first compound 2 µM) of 0.876 and a relative viability (NCI-H647; first compound 6.325 µM) of 1.17. For the same compound, the relative viability (NCI-H647; first compound 20 µM) was 0.686.
